In US20210007356A1, “IMIDE DERIVATIVE AND FUNGICIDE CONTAINING SAID DERIVATIVE AS ACTIVE INGREDIENT” (HOKKO CHEMICAL INDUSTRY CO., LTD., priority 2018, published 2021):
Read-outs that look alike come from different tables or passages of the source.

What was measured:
[1] = test system: rice sheath blight fungus (Thanatephorus cucumeris); experiment: Test Example 6: control effect against rice sheath blight by box treatment (flowable formulation); conditions: flowable 5,000 ppm, 50 mL irrigation of nursery box, paddy rice; inoculated after 3 weeks; 7 days after inoculation
[2] = test system: rice sheath blight fungus (Thanatephorus cucumeris); experiment: Test Example 8: control effect against rice sheath blight by box treatment (granule); conditions: 5 g of granule on nursery box, paddy rice; inoculated after 3 weeks; 7 days after inoculation
Source text: Control value (%)=[1−(lesion height in sprayed plot/lesion height in unsprayed plot)]×100 (d)
From the top of a nursery box, 5 g of a granule prepared according to Formulation Example-4 was applied to a 2.5-leaf-stage paddy rice (variety: Asahi) seedling raised using a nursery box ( 1/10 the area of standard nursery box in size: 12 cm×15 cm×height 4 cm) within a greenhouse. The formulation-treated paddy rice seedling was immediately transplanted at 5 seedlings/pot into a pot ( 1/10000 are in size) filled with paddy soil (flooded). After growing for 3 weeks within a greenhouse, a culture of rice sheath blight fungus (Thanatephorus cucumeris) grown in advance on a rice straw medium was inoculated into the root of the formulation-treated paddy rice, and disease development was promoted in an artificial weather chamber at 26° C. (relative humidity=100%). Seven days after the inoculation, the rice sheath blight lesion height (height from the root) was examined, and the control value (%) was calculated according to formula (d). […] This test was performed with three replications, each consisting of one plot and one pot, per one formulation plot, and its average evaluation value of control effect was determined.

[3] = test system: rice blast fungus (Pyricularia grisea); type: in vivo; conditions: 5 g of granule on nursery box, paddy rice; inoculated after 3 weeks; 7 days after inoculation
[4] = test system: rice sheath blight fungus (Thanatephorus cucumeris); experiment: Test Example 10: control effect against rice sheath blight by water surface application (flowable formulation); conditions: flowable 1,000 ppm, 1 mL dripped in paddy water, inoculated after 1 week, 7 days after inoculation
[5] = test system: rice blast fungus (Pyricularia grisea); type: in vivo; conditions: flowable 5,000 ppm, 50 mL irrigation of nursery box, paddy rice; inoculated after 3 weeks; 7 days after inoculation
[6] = test system: rice blast fungus (Pyricularia grisea); type: in vivo; conditions: flowable 1,000 ppm, 1 mL dripped in paddy water, inoculated after 1 week, 7 days after inoculation
[7] = test system: barley powdery mildew fungus (Erysiphe graminis); experiment: Test Example 2: control effect against barley powdery mildew by foliage application; type: in vivo; conditions: wettable powder diluted to 100 ppm, 10 mL per pot foliage spray on barley; inoculated day after; 7 days after inoculation
[8] = test system: rice blast fungus (Pyricularia grisea); type: in vivo; conditions: flowable diluted to 100 ppm, 10 mL per pot foliage spray on paddy rice; inoculated day after; 7 days after inoculation

| SMILES | evaluation value of control effect (from control value, lesion height) [1] | evaluation value of control effect (from control value, lesion height) [2] | evaluation value of control effect (from control value, number of lesions) [3] | evaluation value of control effect (from control value, lesion height) [4] | evaluation value of control effect (from control value, number of lesions) [5] | evaluation value of control effect (from control value, number of lesions) [6] | evaluation value of control effect (from control value, lesion area percentage) [7] | evaluation value of control effect (from control value, number of lesions) [8] | melting point [°C] |
| --- | --- | --- | --- | --- | --- | --- | --- | --- | --- |
| Cc1cc(C(=O)N(C(=O)c2scnc2C(F)F)c2ccccc2C(C)CC(C)C)sn1 (stereo not shown) [7-134] | 5 | 5 | 5 | 5 | 5 | 5 | 4 | 4 |  |
| Cc1nsc(C(=O)N(C(=O)c2scnc2C(F)F)c2ccccc2C(C)CC(C)C)c1Cl (stereo not shown) [7-141] | 5 | 5 | 5 | 5 | 5 | 5 | 4 | 4 |  |
| CCc1nc(C(F)F)c(C(=O)N(C(=O)c2sc(C)nc2C(F)F)c2ccccc2C(C)CC(C)C)s1 (stereo not shown) [7-216] | 5 | 5 | 5 | 5 | 5 | 5 | 4 | 4 |  |
| Cc1nc(C(F)F)c(C(=O)N(C(=O)c2sc(C)nc2C(F)(F)F)c2ccccc2C(C)CC(C)C)s1 (stereo not shown) [7-226] | 5 | 5 | 5 | 5 | 5 | 5 | 4 | 4 |  |
| Cc1nc(C(F)F)c(C(=O)N(C(=O)c2sc(C)nc2C(F)F)c2ccccc2C(C)CC(C)C)s1 (stereo not shown) [7-238, 4-Difluoromethyl-N-{4-(difluoromethyl)-2-methyl-thiazole-5-carbonyl}-N-{2-(1,3-dimethylbutyl)phenyl}-2-methyl-thiazole-5-carboxamide] | 5 | 5 | 5 | 5 | 5 | 5 | 5 | 4 |  |
| Cc1nc(C(F)F)c(C(=O)N(C(=O)c2scnc2C(F)F)c2ccccc2C(C)CC(C)C)s1 (stereo not shown) [7-262] | 5 | 5 | 5 | 5 | 5 | 5 | 4 | 4 |  |
| CC(C)CC(C)c1ccccc1N(C(=O)c1cccnc1C(F)F)C(=O)c1snc(Cl)c1Cl (stereo not shown) [13-2, 3,4-Dichloro-N-{2-(difluoromethyl)pyridine-3-carbonyl}-N-{2-(1,3-dimethylbutyl)phenyl}isothiazole-5-carboxamide] | 5 | 5 | 5 | 5 | 5 | 5 | 5 | 4 | 111 to 115.6 |
| CC(C)CC(C)c1ccccc1N(C(=O)c1cccnc1Br)C(=O)c1snc(Cl)c1Cl (stereo not shown) [13-54] | 5 | 5 | 5 | 5 | 5 | 5 | 4 | 4 |  |
| CC(C)CC(C)c1ccccc1N(C(=O)c1cc(F)nc(F)c1)C(=O)c1cccnc1C(F)F (stereo not shown) [13-58] | 5 | 5 | 5 | 5 | 5 | 5 | 5 | 4 |  |
| CC1CC(C)(C)c2cccc(N(C(=O)c3cn(C)nc3C(F)F)C(=O)c3snc(Cl)c3Cl)c21 (stereo not shown) [25-4, 3,4-Dichloro-N-{3-(difluoromethyl)-1-methyl-pyrazole-4-carbonyl)-N-(2,3-dihydro-1,1,3-trimethyl-1H-inden-4-yl)-isothiazole-5-carboxamide] | 5 | 5 |  | 5 |  |  | 4 |  | 154.3 to 155.6 |
| Cc1nnsc1C(=O)N(C(=O)c1cn(C)nc1C(F)F)c1cccc2c1C(C)OC2(C)C (stereo not shown) [25-56] | 5 | 5 | 5 | 5 | 5 | 5 | 4 | 4 |  |
| CC1OC(C)(C)c2cccc(N(C(=O)c3cn(C)nc3C(F)F)C(=O)c3snnc3C(F)F)c21 (stereo not shown) [25-68] | 5 | 5 | 5 | 5 | 5 | 5 | 4 | 4 |  |
| CC1OC(C)(C)c2cccc(N(C(=O)c3cn(C)nc3C(F)F)C(=O)c3scnc3C(F)F)c21 (stereo not shown) [25-110] | 5 | 5 | 5 | 5 | 5 | 5 | 4 | 4 |  |
| Cc1nn(C)c(Cl)c1C(=O)N(C(=O)c1snc(Cl)c1Cl)c1cccc2c1C(C)OC2(C)C (stereo not shown) [25-115, 3,4-Dichloro-N-(5-chloro-1,3-dimethyl-pyrazole-4-carbonyl)-N-(1,3-dihydro-1,1,3-trimethylisobenzofuran-4-yl)-isothiazole-5-carboxamide] | 5 | 5 |  | 5 |  |  | 4 | 4 | 165.5 to 170.3 |
| Cc1nc(C(F)F)c(C(=O)N(C(=O)c2snnc2C)c2cccc3c2C(C)OC3(C)C)s1 (stereo not shown) [26-50] | 5 | 5 | 5 | 5 | 5 | 5 | 4 | 4 |  |
| Cc1nc(C(F)F)c(C(=O)N(C(=O)c2scnc2C(F)F)c2cccc3c2C(C)CC3(C)C)s1 (stereo not shown) [26-85] | 5 | 5 | 5 | 5 | 5 | 5 | 5 | 4 |  |
